Laboratory results taken from patent EP0357495A2, “3'Azido-3'-deoxythymidine (AZT) derivatives active against the AIDS virus” (IRE-CELLTARG S.A., priority 1988, dated 1990).

Legend:
[1] = test system: virus HIV-1 (souche HTLV-IIIB); test: viral antigen expression in HIV-infected HUT-78 cells (indirect immunofluorescence, laser cytofluorescence); type: cell-based
Description: Les produits (AZT et AZT-5′ hémisuccinyl) à différentes concentrations ont été mis en présence de cellules HUT-78 infectées par le virus HIV-1 (souche HTLV-IIIB) à une multiplicité d'infection de 0.4. Tous les quatre jours, 3/4 du milieu ont été remplacés par du milieu frais. Après douze jours, l'expression des antigènes viraux a été mesurée par immunofluorescence indirecte à l'aide d'un sérum anti-HIV-I positif, et par cytofluorescence laser, tel que décrit par Pauwels et al. J. Virol. Meth. 16, 171-185 (1987).
Des résultats sont exprimés dans le tableau 3 en ED₅₀ et en pourcentage d'effet protecteur selon la formule : [formula] TABLEAU 3

[2] = test system: virus HIV-1 (souche HTLV-IIIB); test: anti-HIV activity in HIV-infected MT4 cells (MTT method); type: cell-based
Procedure: Les produits (AZT, AZT-5′ hémisuccinyl et AZT 5′-leucyl) à différentes concentrations ont été mis en présence de cellules MT4 (4 X 10⁴ cellules par puits de microtray) infectées ou non avec 100 CCID₅₀ de virus HIV-1 (souche HTLV-IIIB). La CCID₅₀ représente la quantité de virus à rajouter pour obtenir une infection de 50 % des cellules (dose infectieuse de cellules en culture 50).
Après cinq jours d'incubation à 37°C, le nombre de cellules vivantes a été déterminé par la méthode au MTT, basée sur la réduction par les cellules vivantes du 3′-(4, 5-diméthylthiazol-2-yl)-2,5-diphényltétrazoliumbromide, jaune, en formazan, bleu. L'activité antivirale et la cytotoxicité sont exprimées sous forme de ED₅₀ et de CD₅₀. La CD₅₀ représente la dose qui tue 50 % des cellules non infectées et la ED₅₀ représente la dose qui protège 50 % des cellules de l'infection virale.
La même expérience que celle décrite ci-avant (exemple 9.1)) a été réalisée, mais en présence de thymidine 250 µM et de 2′déoxycytidine 500 µM. En effet l'AZT entre en compétition avec la thymidine au niveau des enzymes de phosphorylation qui vont le transformer en AZT triphosphate (AZT TP) qui est la forme active du produit. Un excès de thymidine réduit donc très fortement l'activité de l'AZT, ce qui se traduit par une ED₅₀ plus élevée. Par conséquent, si le dérivé de l'AZT doit son activité à la libération d'AZT qui à son tour est phosphorylé en AZT TP, un excès de thymidine aura également pour effet d'élever la ED₅₀ du dérivé. La thymidine étant cytotoxique à la concentration utilisée, il est nécessaire de rajouter de la 2′déoxycytidine pour empêcher cette toxicité.
Les protocoles expérimentaux sont ceux décrits à l'exemple 9 3.1) et 9 3).

[3] = test system: cellules de la moëlle osseuse; test: toxicity on bone marrow cells (colony count, day 7); type: cell-based; settings: bone marrow cells of a healthy donor, semi-solid medium with GMCSF, colonies at day 7
Description: Des cellules ont été isolées à partir d'un prélèvement de moëlle osseuse chez un donneur sain. Elles ont été mises en culture en milieu semi-solide (agar) additionné de Granulocyte-Macrophage-Colony Stimulating Factor (GMCSF) en présence d'AZT et d'AZT 5′hémisuccinyl à différentes concentrations. Le nombre de cellules ayant donné naissance à une colonie a été déterminé par comptage de colonies au jour 7.
La toxicité du dérivé est de l'ordre de 10 fois plus faible que celle de l'AZT.

[4] = test system: virus MSV Moloney sarcoma virus; test: in vivo activity in MSV-infected NMRI mice (survival, tumour appearance); design: species or system souris NMRI
Procedure: L'AZT et ses dérivés selon l'invention ont été testés in vivo chez la souris NMRI (souriceaux de 2 jours) infectée par le virus MSV Moloney sarcoma virus). La drogue est adminitrée i.p. pendant 5 jours dans un volume de 25 µl/g de poids corporel. Le virus est inoculé dans la cuisse gauche de l'animal deux heures après la première administration de drogue. Les animaux sont contrôlés tous les jours selon trois critères : survie, apparition de la tumeur et poids (toxicité) pendant 50 jours. Les résultats sont repris au tableau 7 et dans les figures 8 à 11. [formula]
On entend par temps médian de survie le temps où la moitié des souris sont encore vivantes. [formula] Tableau 7

[5] = in vivo toxicity, intraperitoneal, 5-day-old NMRI mice; design: species or system souriceaux NMRI; settings: AZT-5′hémisuccinyl, i.p.
Procedure: L'AZT et son dérivé 5′hémisuccinyl ont été administrés par voie infra-péritonéale à de souriceaux NMRI âgés de 5 jours (100 µl/g de poids corporel). Les animaux ont été contrôlés tous les jours selon 2 critères : survie et poids pendant 25 jours.
Les résultats sont repris au tableau 9. Les souriceaux traités n'ont pas montre de différence significative dans la prise de poids par rapport aux contrôles. Tableau 9

[6] = tableau 4, MT-4, with thymidine (250µM) + 2′déoxy-cytidine (500 µM)
[7] = tableau 4, MT-4, without thymidine / 2′déoxycytidine
[8] = AZT-5′ hémisuccinyl 6.8 mg/kg/jour i.p. 5 days
[9] = AZT-5′ hémisuccinyl 34 mg/kg/jour i.p. 5 days
[10] = AZT-5′ hémisuccinyl 170 mg/kg/jour i.p. 5 days

In the case of `Cc1cn([C@H]2C[C@H](N=[N+]=[N-])[C@@H](COC(=O)CCC(=O)O)O2)c(=O)[nH]c1=O` [AZT 5′hémisuccinyl, 5′-hémisuccinyl-3′-azido-3′-déoxythymidine], the “Pourcentage d'effet protecteur” value ([1]; HUT-78, day 12, concentration 0.022 µM) is reported as -23%, the “Pourcentage d'effet protecteur” value ([1]; HUT-78, day 12, concentration 0.11 µM) is reported as 48% and the “Pourcentage d'effet protecteur” value ([1]; HUT-78, day 12, concentration 0.54 µM) is reported as 21%. The “Pourcentage d'effet protecteur” value ([1]; HUT-78, day 12, concentration 2.71 µM) was 72%, the ED₅₀ ([1]; HUT-78 cells, multiplicity of infection 0.4, day 12) was “ED₅₀ AZT-5′hémisuccinyl = 1,77 µM” and the “activité (compared with AZT, in words)” value ([2]; comparison with AZT) was “comparable à celle de l'AZT”. For the same compound, the “indice de sélectivité” value ([2]; de l'ordre de) was ~28 000, the ED₅₀ ([2]; tableau 2, MT4 cells infected with 100 CCID₅₀ HIV-1, 5 days at 37°C, dose that protects 50 % of cells) was “.0069 µM” and the SI ([2]; tableau 2, indice de sélectivité = CD₅₀ sur ED₅₀, MT4 cells) was 28543. The “SI dérivé/SI AZT” value ([2]; tableau 2, ratio within the same experiment, MT4 cells) was 4.7, the ED₅₀ [2, 6] was 6,8399 µM and the SI [2, 6] was 53. For the same compound, the ED₅₀ [2, 7] was 0,0523 µM, the SI [2, 7] was 5633 and the “toxicité plus faible que celle de l'AZT” value [3] was roughly 10 fois. For the same compound, the “% ILS” value [4, 8] was 20.2%, the “% ITL” value [4, 8] was 52.4% and the “Temps moyen d'apparition de la tumeur” value [4, 8] was 7.3 jours. The “Temps moyen de survie” value [4, 8] was 11.5 jours, the “Temps médian d'apparition de la tumeur” value [4, 8] was 6.8 jours and the “Temps médian de survie” value [4, 8] was 11.0 jours. For the same compound, the “% ILS” value [4, 9] was greater than 446%, the “% ITL” value [4, 9] was 145% and the “Temps moyen d'apparition de la tumeur” value [4, 9] was greater than 25.5 jours. The “Temps moyen de survie” value [4, 9] was greater than 41 jours, the “Temps médian d'apparition de la tumeur” value [4, 9] was 11 jours and the “Temps médian de survie” value [4, 9] was greater than 50 jours. For the same compound, the “% ILS” value [4, 10] was 42.1%, the “% ITL” value [4, 10] was 257% and the “Temps moyen d'apparition de la tumeur” value [4, 10] was greater than 23 jours. For the same compound, the “Temps moyen de survie” value [4, 10] was greater than 22.7 jours, the “Temps médian d'apparition de la tumeur” value [4, 10] was 16 jours and the “Temps médian de survie” value [4, 10] was 13 jours. The “Survivants au jour 25” value ([5]; dose 1 g/kg poids corporel (équivalent AZT 0.73)) was 100%, the “Survivants au jour 25” value ([5]; dose 2 g/kg poids corporel (équivalent AZT 1.46)) was 100% and the “Survivants au jour 25” value ([5]; dose 3 g/kg poids corporel (équivalent AZT 2.2)) was 50%. For the same compound, the mortalité/jour ([5]; dose 3 g/kg poids corporel (équivalent AZT 2.2), au jour 1) was “(50 % au jour 1)”.
